Key:
[1] = system: MDR1; assay: Apparent permeability from apical to basolateral side of MDCK cells expressing MDR1; type: ADME, cell-based, Canis lupus familiaris; details: dog
[2] = Dissociation constant, pKa of the compound; type: physicochemical
[3] = Plasma concentration in APP50/16 tg mouse at 60 umol/kg, po after 4 hrs; type: ADME, organism-based; details: APP50/16 transgenic
[4] = Drug level in APP50/16 tg mouse brain at 60 umol/kg, po after 4 hrs; type: ADME, organism-based; details: APP50/16 transgenic, read-out: Drug uptake

Structure (SMILES)	Papp A→B [1]	pKa [2]	concentration at 4 h [3]	concentration at 4 h [4]
COCc1cc2cc(c1)C(=O)N[C@H]([C@H](O)CNC(c1cccc(C(C)(C)C)c1)C(F)(F)F)Cc1cccc(c1)OCCCCN2 (stereo not given in full)	5.6 ×10⁻⁶ cm/s	3.8		
Cc1cc2cc(n1)NCCCCOc1cccc(c1)C[C@@H]([C@H](O)CNCc1cccc(C(C)C)c1)NC2=O	0.17 ×10⁻⁶ cm/s			
COCc1cc2cc(c1)C(=O)N[C@H]([C@H](O)CNC1(c3cccc(C(C)(C)C)c3)CCC1)Cc1cccc(c1)OCCCCN2	1.2 ×10⁻⁶ cm/s			
COCc1cc2cc(c1)C(=O)N[C@H]([C@H](O)CNC(C)(C)c1cccc(C(C)C)c1)Cc1cccc(c1)OCCCCN2	1.8 ×10⁻⁶ cm/s			
CCCS(=O)(=O)N(C)c1cc2cc(c1)C(=O)N[C@H]([C@H](O)CNCc1cccc(C(C)C)c1)Cc1cccc(c1)OCCCCN2	0.95 ×10⁻⁶ cm/s			
COCc1cc2cc(c1)C(=O)N[C@H]([C@H](O)CNC(CF)c1cccc(C(C)(C)C)c1)Cc1cccc(c1)OCCCCN2 (stereo not given in full)	3.8 ×10⁻⁶ cm/s	7.2		
CC(C)c1cccc(CNC[C@@H](O)[C@@H]2Cc3cccc(c3)OCCCCNc3cccc(c3)C(=O)N2)c1	2 ×10⁻⁶ cm/s			
COCc1cc2cc(c1)C(=O)N[C@H]([C@H](O)CNC1(c3cccc(C(C)(C)C)c3)CCCC1)Cc1cccc(c1)OCCCCN2	1.4 ×10⁻⁶ cm/s			
Cc1cc2cc(n1)OCCCCOc1cccc(c1)C[C@@H]([C@H](O)CNC1(c3cccc(C(C)C)c3)CC1)NC2=O	4 ×10⁻⁶ cm/s		3000 nM	320 nM
Cc1cc2cc(n1)OCCCCOc1cccc(c1)C[C@@H]([C@H](O)CNCc1cccc(C(C)C)c1)NC2=O	1.3 ×10⁻⁶ cm/s		30 nM	40 nM
COCc1cc2cc(c1)C(=O)N[C@H]([C@H](O)CNCc1cccc(C(C)C)c1)Cc1cccc(c1)OCCCCN2	0.16 ×10⁻⁶ cm/s			
COCc1cc2cc(c1)C(=O)N[C@H]([C@H](O)CNC(COC)c1cccc(C(C)(C)C)c1)Cc1cccc(c1)OCCCCN2 (stereo not given in full)	1.3 ×10⁻⁶ cm/s			
CC(C)c1cccc(CNC[C@@H](O)[C@@H]2Cc3cccc(c3)OCCCCNc3cc(cc(N4C=COC4)c3)C(=O)N2)c1	0.11 ×10⁻⁶ cm/s			
CC(C)c1cccc(C2(NC[C@@H](O)[C@@H]3Cc4cccc(c4)OCCCCOc4cc(cc(N5CCCC5=O)c4)C(=O)N3)CC2)c1	0.4 ×10⁻⁶ cm/s			
CCCS(=O)(=O)N(C)c1cc2cc(c1)C(=O)N[C@H]([C@H](O)CNC1(c3cccc(C(C)C)c3)CC1)Cc1cccc(c1)OCCCCN2	0.28 ×10⁻⁶ cm/s			
Cc1cc2cc(n1)OCCCCOc1cccc(c1)C[C@@H]([C@H](O)CNC(C)c1cccc(C(C)C)c1)NC2=O (stereo not given in full)	1.3 ×10⁻⁶ cm/s	8.5		
COCc1cc2cc(n1)OCCCCOc1cccc(c1)C[C@@H]([C@H](O)CNC1(c3cccc(C(C)C)c3)CC1)NC2=O	4.9 ×10⁻⁶ cm/s		2200 nM	540 nM
COCc1cc2cc(c1)C(=O)N[C@H]([C@H](O)CNC1(c3cccc(C(C)C)c3)CC1)Cc1cccc(c1)OCCCCN2	3.1 ×10⁻⁶ cm/s	7.3	1200 nM	250 nM

— ChEMBL document CHEMBL1153192, “Macrocyclic BACE-1 inhibitors acutely reduce Abeta in brain after po application” (Bioorg Med Chem Lett, 2010)
